The results in this text go back to paper PMC6284238 (Neuron, 2017).

In this test the target is T1, zebrafish SARM1-TIR (Danio rerio, UniProt F1QWA8).
T1 sequence (F1QWA8 552-695 limits assumed): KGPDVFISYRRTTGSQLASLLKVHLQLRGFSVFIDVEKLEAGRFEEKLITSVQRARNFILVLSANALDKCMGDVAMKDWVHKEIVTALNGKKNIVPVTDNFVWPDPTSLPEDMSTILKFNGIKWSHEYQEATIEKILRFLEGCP
The test can be described thus: NADase assay with HPLC, purified bacterial protein. Type of test: biochemical.

Consider `NC(=O)c1ccc[n+]([C@@H]2O[C@H](COP(=O)([O-])OP(=O)(O)OC[C@H]3O[C@@H](n4cnc5c(N)ncnc54)[C@H](O)[C@@H]3O)[C@@H](O)[C@H]2O)c1` [NAD^+], for which the “NADase assay with HPLC, purified bacterial protein” value is “bacterially expressed mouse, zebrafish, and Drosophila SARM1-TIR domains also degrade NAD^+ in vitro”.
